From the METLIN SMRT retention time set (Domingo-Almenara et al. 2019)

Assay: gradient 5% acetonitrile 3 min, to 50% in 2 min, to 85% in 15 min, held 3 min, 100 µL/min
Settings: column: Zorbax Extend-C18 2.1 x 50 mm; eluents: water / acetonitrile, 0.1% formic acid
Outline: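 The mobile phases were water and acetonitrile, each with 0.1% formic acid, pumped at 100 μL/min through a Zorbax Extend-C18 column (2.1 × 50 mm, 1.8 μm). Pure standards were injected as mixtures of ~100 molecules and detected by a quadrupole time-of-flight mass spectrometer in positive and negative ionization mode. Retention time came from computationally picked adduct peaks, each inspected by hand.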

| SMILES | RP-LC retention time [s] |
| --- | --- |
| CCc1ccc(-c2nc3sc(C(=O)NC)c(C)n3c2NCCOC)cc1 | 754 |
| CCOc1ccc(CNC(=O)C2CCN(S(=O)(=O)c3cn(C)cn3)CC2)cc1 | 692 |
| O=C(Nc1cccc(Cl)c1)C1CCN(c2cc(N3CCCC3)ncn2)CC1 | 714 |
| COc1cccc(CNC(=O)c2ccc(CN3CCN(C(C)C)C(=O)C3=O)cc2)c1 | 693 |
| COC(=O)CCc1sc(NC2CCCCC2)nc1-c1ccc(OC)cc1 | 856 |
| COc1ccccc1-n1ccn2cc(-c3ccc(F)cc3F)nc2c1=O | 844 |
| CCc1noc(-c2cccnc2N2CCCN(Cc3ccccc3Cl)CC2)n1 | 679 |
| CN1CCC2(CCN3CCc4c(oc5ccccc45)C3C2)N(C)C1=O (stereo unspecified) | 615 |
| O=c1c2cc(-c3cccs3)nn2cnn1Cc1nc(-c2ccc(OC(F)(F)F)cc2)no1 | 1180 |
| COC(=O)c1ccccc1NC(=O)c1noc2c1CCC2 | 1110 |
| CC(C)c1nnc(C2CN(C(=O)c3cccn3C)CC23CCOCC3)o1 (stereo unspecified) | 639 |
| COc1ccc(CC(=O)Nc2nc3ccc(S(=O)(=O)NC(C)C)cc3s2)cc1OC | 730 |
| CC(C)Nc1ccc2nnc(C3CCC3)n2n1 | 801 |
| O=C1C(O)=C(S(=O)(=O)c2ccccc2)C(c2ccccc2)N1Cc1ccccc1 (stereo unspecified) | 947 |
| Cc1ccc(Sc2ccc(N3CCCC(C(=O)N4CCN(c5ccccn5)CC4)C3)nn2)cc1 (stereo unspecified) | 659 |
| CN(C)C(=O)c1n[nH]c2c1CN(C(=O)c1ccccc1Br)CC2 | 623 |
| Cc1noc(C)c1S(=O)(=O)N1CCC(C(C)C(=O)N2CCN(C3CCCCC3)CC2)CC1 (stereo unspecified) | 654 |
| COc1cccc(-c2nnc(Cc3nc(-c4ccccc4Cl)no3)o2)c1 | 1020 |

| SMILES | RP-LC retention time [s] |
| --- | --- |
| COc1ccc(-c2noc(-c3c(SC)nn(CC(=O)Nc4ccccc4)c3N)n2)cc1 | 934 |
| CCS(=O)(=O)c1cccc(-c2cc(C(=O)NC3CCN(C)CC3)c(C)c3[nH]c4ncc(C)cc4c23)c1 | 645 |
| CC(=O)N1CCC2(CC1)NC(=O)c1cccc(C)c1O2 | 650 |
| Cc1ccc(C)c(NC(=O)C2CCN(C(=O)C3Sc4ccccc4NC3=O)CC2)c1 (stereo unspecified) | 760 |
| O=C(C1CCCN(c2ncnc3c2nc2n3CCCCC2)C1)N1CCN(c2ccc(Cl)cc2)CC1 (stereo unspecified) | 928 |
| CN(C)S(=O)(=O)c1ccc2nc(NC(=O)c3nc4ccccc4s3)sc2c1 | 948 |
| Cc1ccc(CNC(=O)c2nc(Nc3ccc(F)cc3)c3ccccc3n2)o1 | 784 |
| CC(C)Cn1c(=O)c2ccccc2n(Cc2nc(-c3cccc(Cl)c3)no2)c1=O | 1250 |
| COc1ccc(Cn2c(=O)c3sccc3n(Cc3nc(-c4ccccc4OC)no3)c2=O)cc1 | 970 |
| Cc1nc(CSCC(=O)Nc2ccc(Cl)cc2)cs1 | 778 |
| COc1ccc(-c2cn3c(CC(=O)Nc4ccc(S(N)(=O)=O)cc4)csc3n2)cc1OC | 630 |
| CN(c1ccccc1)c1nc(=O)n(CC(=O)Nc2ccc3c(c2)OCO3)c2ccccc12 | 800 |
| COc1cccc(NC(=O)Nc2nccn(-c3ccc(F)cc3)c2=O)c1 | 898 |
| O=C(NCc1ccc(Br)cc1)c1ccc(=O)n(CCN2CCCC2)c1 | 630 |
| Cc1cc2n(n1)CCC(=O)N2CCCC(=O)NCCCN1CCc2ccccc2C1 | 580 |
| CN1C(=O)c2cc(C(=O)NCCN3CCCCCC3)nn2CC1(C)C(=O)NCc1ccccc1 (stereo unspecified) | 608 |
| COc1cccc(NC(=O)c2cc(C(C)(C)C)n3nccc3n2)c1 | 1250 |
| O=C(c1ccc2c(c1)N(Cc1ccccc1)C(=O)CO2)N1CCc2ccccc21 | 980 |
